Like-named read-outs stand apart in the source and are kept apart here.
Legend:
[1] = tested on: NO release in RAW264.7 cells; experiment: LPS-stimulated nitric oxide (NO) release in murine macrophage RAW264.7 cells (Griess reaction); type: cell-based; conditions: Mus musculus, read-out: IC50 in inhibition of LPS-induced NO release
Method: LPS-Stimulated Nitric Oxide (NO) Release in Murine Macrophage RAW264.7 Cells
RAW264.7 cells was cultivated in DMEM supplemented with 10% FBS at 37° C. in a humidified atmosphere of 5% CO2. Cells in 96-well plates (0.1 ml, 3×10^5 cells/ml) were treated with the test compounds. After 30 min, all supernatants were removed and cells were treated with LPS (1 μg/ml) and the test compounds. After 24 hours, the level of nitrite was measured using Griess reaction G2930 (Promega Corp., Madison, Wis.) [see Bredt and Snyder, Ann Rev Biochem 63, 175-195 (1994)]. The test compounds dissolved in DMSO were diluted with culture medium to concentrations from 0.28 to 50,000 nM. The final concentration of DMSO was adjusted to 0.05% (v/v). The nitrite production was measured by spectrophotometry at 520 nm using EnVison 2104 Multilabel Reader (PerkinElmer, Inc., Waltham, Mass.). Each experiment was performed at least in triplicate and plotted using Prism.

[2] = tested on: mRNA transcript levels of cytokines IL-6, IL-1β and TNFα in RAW264.7 cells; experiment: LPS-induced transcriptional activation of cytokines in murine macrophage cells (quantitative PCR); type: cell-based; conditions: Mus musculus
Method: LPS-Induced Transcriptional Activation of Cytokines in Murine Macrophage Cells RAW264.7 cells were cultivated with or without a treatment of the compounds as described above. Total RNA was isolated the cells using TRIzol reagent (Gibco, Grand Island, N.Y.) for homogenization. The concentration and integrity of RNA were determined by measuring absorbance at a 260 nm/280 nm ratio. Quantitative PCR was performed to determine the mRNA transcript levels of cytokines IL-6, IL-1β and TNFα with specific primers for these target genes. Each experiment was performed at least in triplicate, and plotted using Prim, and an IC50 value was calculated.

BRD4_2 = target: T1, BRD4_2 (Homo sapiens, UniProt O60885); experiment: Fluorescence anisotropy binding assay (competition with FITC-labeled MS417 probe), BRD4_2; conditions: FITC-MS417 probe 80 nM, PBS pH 7.4, 1 hour, 25° C.
T1 construct: contains two tandem bromodomains (BrD1 and BrD2)

[3] = target: T2, first bromodomain (BrD1) of human BRD4 (Homo sapiens, UniProt O60885); experiment: Fluorescence anisotropy binding assay (competition with FITC-labeled MS417 probe); conditions: FITC-MS417 probe 80 nM, PBS pH 7.4, 1 hour, 25° C., read-out: BRD4_1 IC50
T2 construct: the first bromodomain (BrD1) of human BRD4; poly-His (cleaved yes); made in house
Method in brief: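 BRD4 BrD1 (His tag removed by thrombin) at 0.25 to 1 μM competed against 80 nM FITC-labeled MS417 in PBS pH 7.4. Anisotropy read after 1 hour at 25° C. Ki derived from fitted IC50 by Nikolovska-Coleska-corrected Cheng-Prusoff equation, one-site competitive model.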

[4] = RAW264.7, read-out: IC50 in inhibition of transcriptional activation of the cytokines IL-6, IL-1β and TNFα

Row | Compound | IC50 (BRD4_2) [nM] | IC50 [3] [nM] | IC50 ([1]; RAW264.7 cells, LPS 1 μg/ml, 24 hours, nitrite by Griess reaction) [nM] | melting point [°C] | IC50 ([1]; RAW264.7, 24 h) [nM] | IC50 [2, 4] [nM] | IC50 ([2]; RAW264.7 cells, LPS, quantitative PCR of mRNA transcript levels, read-out: IC50 in inhibition of transcriptional activation of the cytokines IL-6, IL-1β and TNFα) [nM]
1 | CC1=C(Nc2ccc(C(=O)Nc3cccc4ccccc34)cc2Cl)CCC1=O [Example 04-15, 3-chloro-4-((2-methyl-3-oxocyclopent-1-en-1-yl)amino)-N-(naphthalen-1-yl)-benzamide] | 1000 to 10000 | < 1000 | – | – | 100 to 5000 | 100 to 5000 | –
2 | COc1ccccc1NC(=O)c1ccc(NC2=C(C)C(=O)CC2)c(Cl)c1 [Example 04-17, 3-chloro-N-(2-methoxyphenyl)-4-((2-methyl-3-oxocyclopent-1-en-1-yl)amino)benzamide] | 1000 to 10000 | < 1000 | 100 to 5000 | – | – | – | 100 to 5000
3 | CC1=C(Nc2cc(C(=O)Nc3ccccc3C)ccc2Cl)CCC1=O [Example 04-89, 4-chloro-3-((2-methyl-3-oxocyclopent-1-en-1-yl)amino)-N-(o-tolyl)benzamide] | 1000 to 10000 | < 1000 | – | – | 100 to 5000 | 100 to 5000 | –
4 | CC1=C(Nc2cccc(NS(=O)(=O)c3ccccc3C)c2Cl)CCC1=O [Example 05-65, N-(2-chloro-3-((2-methyl-3-oxocyclopent-1-en-1-yl)amino)phenyl)-2-methylbenzenesulfonamide] | 1000 to 10000 | < 1000 | – | 75 to 77 | – | – | –
5 | CC1=C(Nc2cc(NCc3ccccc3C)ccc2Cl)CCCC1=O [Example 05-72, 3-((2-chloro-5-((2-methylbenzyl)amino)phenyl)amino)-2-methylcyclohex-2-enone] | < 1000 | < 1000 | – | 158 to 160 | – | – | –
6 | CC1=C(Nc2cc(NCCc3ccccc3C)ccc2Cl)CCCC1=O [Example 05-73, 3-((2-chloro-5-((2-methylphenethyl)amino)phenyl)amino)-2-methylcyclohex-2-enone] | 1000 to 10000 | 1000 to 10000 | – | 85 to 87 | – | – | –
7 | CC1=C(Nc2cc(NCc3cccc(F)c3C)ccc2Cl)CCCC1=O [Example 05-75, 3-((2-chloro-5-((3-fluoro-2-methylbenzyl)amino)phenyl)amino)-2-methylcyclohex-2-enone] | 1000 to 10000 | < 1000 | – | 160 to 162 | – | – | –
8 | CC1=C(Nc2ccc(NCc3ccccc3C)cc2Cl)CCCC1=O [Example 05-76, 3-((2-chloro-4-((2-methylbenzyl)amino)phenyl)amino)-2-methylcyclohex-2-enone] | > 10000 | 1000 to 10000 | – | 220 to 221 | – | – | –
9 | CC1=C(Nc2ccc(NCCc3ccccc3C)cc2Cl)CCCC1=O [Example 05-77, 3-((2-chloro-4-((2-methylphenethyl)amino)phenyl)amino)-2-methyl-cyclohex-2-enone] | 1000 to 10000 | 1000 to 10000 | – | 160 to 162 | – | – | –
10 | CC1=C(Nc2cccc(NCc3ccccc3C)c2Cl)CCCC1=O [Example 05-78, 3-((2-chloro-3-((2-methylbenzyl)amino)phenyl)amino)-2-methylcyclohex-2-enone] | 1000 to 10000 | < 1000 | – | 132 to 135 | – | – | –
11 | CC1=C(Nc2cccc(NCCc3ccccc3C)c2Cl)CCCC1=O [Example 05-79, 3-((2-chloro-3-((2-methylphenethyl)amino)phenyl)amino)-2-methylcyclohex-2-enone] | > 10000 | 1000 to 10000 | – | 157 to 160 | – | – | –
12 | CC1=C(Nc2ccc(Nc3ccccc3C)cc2Cl)CCCC1=O [Example 05-82, 3-((2-chloro-4-(o-tolylamino)phenyl)amino)-2-methylcyclohex-2-enone] | > 10000 | < 1000 | – | 68 to 70 | – | – | –
13 | CC1=C(Nc2ccc(NC(=O)/C=C\C(=O)O)cc2Cl)CCCC1=O [Example 05-84, (Z)-4-((3-chloro-4-((2-methyl-3-oxocyclohex-1-en-1-yl)amino)phenyl)-amino)-4-oxobut-2-enoic acid] | > 10000 | 1000 to 10000 | – | 200 to 202 | – | – | –

More lines, main results first:

Row | IC50 (BRD4_2) [nM] | IC50 [3] [nM] | IC50 ([1]; RAW264.7 cells, LPS 1 μg/ml, 24 hours, nitrite by Griess reaction) [nM] | melting point [°C] | Compound | IC50 ([1]; RAW264.7, 24 h) [nM] | IC50 [2, 4] [nM] | IC50 ([2]; RAW264.7 cells, LPS, quantitative PCR of mRNA transcript levels, read-out: IC50 in inhibition of transcriptional activation of the cytokines IL-6, IL-1β and TNFα) [nM]
14 | 1000 to 10000 | < 1000 | – | 158 to 160 | CC1=C(Nc2cc(NS(=O)(=O)C3CCCCC3)ccc2Cl)CCC1=O [Example 05-55, N-(4-chloro-3-((2-methyl-3-oxocyclopent-1-en-1-yl)amino)phenyl)-cyclohexanesulfonamide] | – | – | –
15 | < 1000 | < 1000 | – | 215 to 217 | CC1=C(Nc2cc(NS(=O)(=O)c3ccccc3F)ccc2Cl)CCC1=O [Example 05-58, N-(4-chloro-3-((2-methyl-3-oxocyclopent-1-en-1-yl)amino)phenyl)-2-fluorobenzenesulfonamide] | – | – | –
16 | < 1000 | < 1000 | – | 235 to 238 | CC1=C(Nc2cc(NS(=O)(=O)c3ccccc3C#N)ccc2Cl)CCC1=O [Example 05-59, N-(4-chloro-3-((2-methyl-3-oxocyclopent-1-en-1-yl)amino)phenyl)-2-cyanobenzenesulfonamide] | – | – | –
17 | < 1000 | < 1000 | – | 198 to 200 | COc1ccccc1S(=O)(=O)Nc1ccc(Cl)c(NC2=C(C)C(=O)CC2)c1 [Example 05-60, N-(4-chloro-3-((2-methyl-3-oxocyclopent-1-en-1-yl)amino)phenyl)-2-methoxybenzenesulfonamide] | – | – | –
18 | < 1000 | < 1000 | – | 78 to 80 | CC1=C(Nc2cc(NS(=O)(=O)N3CCCCC3)ccc2Cl)CCC1=O [Example 05-61, N-(4-chloro-3-((2-methyl-3-oxocyclopent-1-en-1-yl)amino)phenyl)-piperidine-1-sulfonamide] | – | – | –
19 | 1000 to 10000 | < 1000 | – | 60 to 67 | CC1=C(Nc2cc(NS(=O)(=O)N3CCOCC3)ccc2Cl)CCC1=O [Example 05-62, N-(4-chloro-3-((2-methyl-3-oxocyclopent-1-en-1-yl)amino)phenyl)-morpholine-4-sulfonamide] | – | – | –
20 | 1000 to 10000 | < 1000 | – | 215 to 218 | CC1=C(Nc2ccc(NS(=O)(=O)c3ccccc3C)cc2Cl)CCC1=O [Example 05-63, N-(3-chloro-4-((2-methyl-3-oxocyclopent-1-en-1-yl)amino)phenyl)-2-methylbenzenesulfonamide] | – | – | –
21 | 1000 to 10000 | < 1000 | – | 210 to 213 | CC1=C(Nc2ccc(NS(=O)(=O)C3CCCCC3)cc2Cl)CCC1=O [Example 05-64, N-(3-chloro-4-((2-methyl-3-oxocyclopent-1-en-1-yl)amino)phenyl)-cyclohexanesulfonamide] | – | – | –
22 | < 1000 | < 1000 | – | 215 to 217 | CC1=C(Nc2cc(NS(=O)(=O)C3CCCCC3)ccc2Cl)CCCC1=O [Example 05-67, N-(4-chloro-3-((2-methyl-3-oxocyclohex-1-en-1-yl)amino)phenyl)-cyclohexanesulfonamide] | – | – | –
23 | 1000 to 10000 | < 1000 | – | 230 to 232 | CC1=C(Nc2ccc(NS(=O)(=O)C3CCCCC3)cc2Cl)CCCC1=O [Example 05-69, N-(3-chloro-4-((2-methyl-3-oxocyclohex-1-en-1-yl)amino)phenyl)-cyclohexanesulfonamide] | – | – | –
24 | < 1000 | < 1000 | – | 103 to 105 | CC1=C(Nc2cc(NCc3ccccc3F)ccc2Cl)CCCC1=O [Example 05-74, 3-((2-chloro-5-((2-fluorobenzyl)amino)phenyl)amino)-2-methylcyclohex-2-enone] | – | – | –
25 | 1000 to 10000 | < 1000 | – | 165 to 168 | CC1=C(Nc2cc(Nc3ccccc3C)ccc2Cl)CCCC1=O [Example 05-81, 3-((2-chloro-5-(o-tolylamino)phenyl)amino)-2-methylcyclohex-2-enone] | – | – | –
26 | > 10000 | 1000 to 10000 | – | 182 to 185 | CC1=C(Nc2cc(NC(=O)/C=C\C(=O)O)ccc2Cl)CCCC1=O [Example 05-83, (Z)-4-((4-chloro-3-((2-methyl-3-oxocyclohex-1-en-1-yl)amino)phenyl)-amino)-4-oxobut-2-enoic acid] | – | – | –
